Results on three compounds are retold here after publication PMC4534002 (Journal of medicinal chemistry, 2013).

Some results are limits rather than exact numbers.

A word on the Tm: it is the temperature at the midpoint of the melting transition.

The target in series [1] is T1, CYP3A4 (Homo sapiens, UniProt P08684). Put plainly: Redox potential measurement of inhibitor-bound CYP3A4. The conditions noted are these: for Eo,7 (midpoint redox potential of the inhibitor-bound CYP3A4): ligand-free CYP3A4 ~−300 mV, benzyl viologen as redox dye; for negative shift (decrease) in heme redox potential Eo,7 caused by ligation: relative to ligand-free CYP3A4.

The target of series [2] is T1, CYP3A4. Put plainly: Thermal denaturation of CYP3A4-inhibitor complex, WT. In kind it is binding. The conditions noted are these: WT CYP3A4 2 µM, 10 µM inhibitor; ligand-free 52.6 ± 0.1, with 2% DMSO 52.1 ± 0.1.
For another series, the target named is CYP3A4 S119A (Homo sapiens, UniProt P08684, S119A). As to the kind of experiment: Thermal denaturation of CYP3A4 S119A-inhibitor complex. It is filed as binding. The conditions noted are these: for Tm: CYP3A4 S119A mutant, ligand-free 54.0 ± 0.1, with 2% DMSO 53.5 ± 0.1; for decrease in Tm of ligand-bound S119A CYP3A4 vs wild type: S119A vs WT.
For series [3], the target named is T1, CYP3A4. As to the kind of experiment: Dissociation during repetitive concentration/dilution cycles. In kind it is binding.
Series [4] deals with T1, CYP3A4. As to the kind of experiment: Spectral binding titration. The conditions noted are these: WT CYP3A4, relative to ritonavir.
Series [5] concerns the target T1, CYP3A4. As to the kind of experiment: BFC hydroxylase activity inhibition in reconstituted system with CPR. The conditions noted are these: from IC50 values.

For the compound `CC(C)c1nc(CN(C)C(=O)N[C@H](C(=O)N[C@H](CC[C@H](Cc2ccccc2)NC(=O)OCc2cnc[nH]2)Cc2ccccc2)C(C)C)cs1` [compound 1], at CYP3A4 [1], the “Eo,7 (midpoint redox potential of the inhibitor-bound CYP3A4)” value is listed as <<-370 mV and the “negative shift (decrease) in heme redox potential Eo,7 caused by ligation” value (“negative shift (decrease)” for short) is recorded as over 70 mV. Further, the “Tm (melting temperature of the CYP3A4-inhibitor complex)” value on CYP3A4 [2] came out at 56.5 ± 0.2 °C. For the same compound, on CYP3A4 S119A, the melting temperature (Tm) worked out at 55.5 ± 0.2 °C and the “decrease in Tm of ligand-bound S119A CYP3A4 vs wild type” value is 1–1.6 °C. Also, the “reversibility of binding (dissociation from CYP3A4)” value (from here on “reversibility of binding”) at CYP3A4 [3] is “dissociated”.

For `CC(C)c1nc(CN(C)C(=O)N[C@H](C(=O)N[C@H](CC[C@H](Cc2ccccc2)NC(=O)OCc2cnco2)Cc2ccccc2)C(C)C)cs1` [compound 2], on CYP3A4 [4], the “fold lower binding affinity for CYP3A4 than ritonavir (from Ks)” value is reported as 10 fold. In addition, on CYP3A4 [1], the “Eo,7 (midpoint redox potential of the inhibitor-bound CYP3A4)” value is “≈ −370 mV” and the “negative shift (decrease)” value was ~ 50 mV. Also, the “Tm (melting temperature of the CYP3A4-inhibitor complex)” value on CYP3A4 [2] turned out to be 54.8 ± 0.1 °C. Also, on CYP3A4 S119A, the Tm came to 53.2 ± 0.1 °C and the “decrease in Tm of ligand-bound S119A CYP3A4 vs wild type” value is 1–1.6 °C. For the same compound, the “reversibility of binding” value at CYP3A4 [3] was “dissociated”. The “fold lower inactivating potency than ritonavir” value on CYP3A4 [5] worked out at 6 fold.

Take `CC(C)c1nc(CN(C)C(=O)N[C@H](C(=O)N[C@H](CC[C@H](Cc2ccccc2)NC(=O)OCc2cccnc2)Cc2ccccc2)C(C)C)cs1` [compound 3]: on CYP3A4 [1], the “Eo,7 (midpoint redox potential of the inhibitor-bound CYP3A4)” value is −350 ± 5 mV and the “negative shift (decrease)” value is reported as about 70 mV. Also, the “Tm (melting temperature of the CYP3A4-inhibitor complex)” value at CYP3A4 [2] was 57.2 ± 0.2 °C. On CYP3A4 S119A, the Tm was determined as 55.6 ± 0.2 °C and the “decrease in Tm of ligand-bound S119A CYP3A4 vs wild type” value was 1–1.6 °C. In addition, the “reversibility of binding” value on CYP3A4 [3] is recorded as “irreversibly”. At CYP3A4 [5], the “fold more effective inhibition of BFC hydroxylation than ritonavir” value is listed as 2–4 fold.
